Experimental findings from patent US10047051B2, “Substituted pyridines and method of use” (AbbVie S.á{acute over (.)}r.l., priority 2015, dated 2018) are described below.

What all share (type): cell-based
The target in assay [1] is T1, CFTR G551D mutant (Homo sapiens, UniProt P13569, G551D).
T1 construct: expressed in transfected cells; host or cells: HEK293 cells, reverse transfection with plasmids
The assay can be described thus: YFP-halide influx assay for the CFTR-G551D mutation (HEK293 cells). Particulars: forskolin 10.67 μM. The method, boiled down:
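HEK293 cells reverse-transfected with CFTR G551D and halide-sensitive YFP (H148Q/I152L/F47L), expressed 24 h at 37 °C. YFP fluorescence quenching recorded for 7 s after I⁻ injection. Response = 1−F/F0; EC50 derived from 1−F/F0 vs compound concentration.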

For assay [2], the target named is G551D CFTR (Homo sapiens, UniProt P13569, G551D). The assay is described as follows: TECC assay, FRT-CFTR G551D protocol. The conditions noted are these: FRT cells stably transfected with G551D CFTR, high expression cells, increase in Isc after forskolin. The protocol:
For G551D recordings, Fischer Rat Thyroid (FRT) cells stably transfected with G551D CFTR (a low CFTR-G551D expressing cell line and a high expressing CFTR-G551D cell line from Rosalind Franklin University of Medicine and Science, North Chicago, Ill.) are plated on Transwell® supports (Costar 6.5 mm diameter, 0.4 μm pore size). The cells are grown for 8-10 days under liquid-liquid interface conditions prior to electrophysiological readings. For electrophysiological recording, the FRT-G551D cells are mounted in the TECC heating plate for electrophysiological measurement and kept at 37° C. The epithelia are bathed in HEPES buffered culturing medium without FBS on both the basolateral and apical sides. Apical amiloride is used to inhibit the endogenous ENaC currents while forkolin is applied on both apical and basolateral side to stimulate CFTR. After forskolin triggering, compounds are added on both sides to test their potential for increasing CFTR gating. Measurements are done during a 10 minute timeframe with recordings every 2 minutes. The increase in Isc is used as a measure for the increased CFTR activity, EC50 values can be generated by measuring impact of different concentrations of compound on Isc on the cells, for this purpose each transwell is treated with a different compound concentration. Inh-172, an inhibitor specific for CFTR, is used to test the specificity of the tested compounds.

For assay [3], the target named is T2, CFTR ΔF508 mutant (Homo sapiens, UniProt P13569, DEL508-508).
T2 construct: expressed in transfected cells; host or cells: CFBE41o- cells, adenoviral transduction
T2 sequence (P13569 with tags, fused parts or gaps DEL508-508): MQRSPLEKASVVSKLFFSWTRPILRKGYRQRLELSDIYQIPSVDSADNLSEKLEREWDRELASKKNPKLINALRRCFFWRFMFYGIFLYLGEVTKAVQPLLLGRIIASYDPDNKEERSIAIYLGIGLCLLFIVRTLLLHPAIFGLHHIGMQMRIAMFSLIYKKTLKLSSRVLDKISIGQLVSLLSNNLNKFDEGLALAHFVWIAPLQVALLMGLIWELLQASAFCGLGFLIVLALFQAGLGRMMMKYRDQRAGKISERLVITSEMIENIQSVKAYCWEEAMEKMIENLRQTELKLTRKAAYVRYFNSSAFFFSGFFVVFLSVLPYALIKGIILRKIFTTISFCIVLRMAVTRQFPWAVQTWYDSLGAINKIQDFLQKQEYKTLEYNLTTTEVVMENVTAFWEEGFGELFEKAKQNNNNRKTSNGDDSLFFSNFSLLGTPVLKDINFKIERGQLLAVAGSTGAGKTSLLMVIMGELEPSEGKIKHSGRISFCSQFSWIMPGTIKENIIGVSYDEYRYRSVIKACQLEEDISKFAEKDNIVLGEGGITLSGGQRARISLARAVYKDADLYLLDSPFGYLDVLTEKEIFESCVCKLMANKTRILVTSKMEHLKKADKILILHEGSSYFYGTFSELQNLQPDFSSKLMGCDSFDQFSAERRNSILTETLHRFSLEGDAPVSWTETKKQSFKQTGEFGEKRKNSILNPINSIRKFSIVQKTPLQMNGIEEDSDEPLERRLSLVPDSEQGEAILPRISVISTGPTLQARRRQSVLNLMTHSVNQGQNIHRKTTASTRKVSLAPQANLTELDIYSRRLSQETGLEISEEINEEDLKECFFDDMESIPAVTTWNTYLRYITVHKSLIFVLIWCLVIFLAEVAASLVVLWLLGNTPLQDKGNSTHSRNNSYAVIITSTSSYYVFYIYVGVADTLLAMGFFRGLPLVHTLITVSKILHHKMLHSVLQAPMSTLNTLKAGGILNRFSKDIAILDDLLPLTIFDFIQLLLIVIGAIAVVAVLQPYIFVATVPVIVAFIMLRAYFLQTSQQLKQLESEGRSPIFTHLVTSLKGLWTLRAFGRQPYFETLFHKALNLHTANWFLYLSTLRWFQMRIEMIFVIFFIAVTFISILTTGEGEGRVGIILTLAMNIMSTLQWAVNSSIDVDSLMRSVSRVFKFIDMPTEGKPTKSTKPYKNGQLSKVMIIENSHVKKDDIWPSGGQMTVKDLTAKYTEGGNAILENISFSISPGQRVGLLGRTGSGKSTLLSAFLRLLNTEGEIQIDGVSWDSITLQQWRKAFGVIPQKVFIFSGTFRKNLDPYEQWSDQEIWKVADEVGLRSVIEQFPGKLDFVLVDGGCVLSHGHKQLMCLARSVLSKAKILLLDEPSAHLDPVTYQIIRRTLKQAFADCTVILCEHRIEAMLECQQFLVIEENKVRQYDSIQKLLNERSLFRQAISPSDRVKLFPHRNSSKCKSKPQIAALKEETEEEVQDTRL
The assay is described as follows: YFP-halide influx assay for the CFTR-ΔF508 mutation (CFBE41o- cells). The conditions noted are these: forskolin 10.67 μM; for EC50: from (1−F/F0) vs concentration plot. The method, boiled down:
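CFBE41o- cells transduced with adenovirus expressing CFTR ΔF508 and halide-sensitive YFP H148Q/I152L/F47L, then held 24 h at 27° C or with a CFTR modulator 24 h at 37° C. Iodide-induced quench recorded 2 min; EC50 from (1−F/F0) at 36 s versus concentration.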

For assay [4], the target named is T3, CFTR-S549N (Homo sapiens, UniProt P13569, S549N).
T3 construct: expressed in transfected cells
T3 sequence (P13569 whole entry S549N): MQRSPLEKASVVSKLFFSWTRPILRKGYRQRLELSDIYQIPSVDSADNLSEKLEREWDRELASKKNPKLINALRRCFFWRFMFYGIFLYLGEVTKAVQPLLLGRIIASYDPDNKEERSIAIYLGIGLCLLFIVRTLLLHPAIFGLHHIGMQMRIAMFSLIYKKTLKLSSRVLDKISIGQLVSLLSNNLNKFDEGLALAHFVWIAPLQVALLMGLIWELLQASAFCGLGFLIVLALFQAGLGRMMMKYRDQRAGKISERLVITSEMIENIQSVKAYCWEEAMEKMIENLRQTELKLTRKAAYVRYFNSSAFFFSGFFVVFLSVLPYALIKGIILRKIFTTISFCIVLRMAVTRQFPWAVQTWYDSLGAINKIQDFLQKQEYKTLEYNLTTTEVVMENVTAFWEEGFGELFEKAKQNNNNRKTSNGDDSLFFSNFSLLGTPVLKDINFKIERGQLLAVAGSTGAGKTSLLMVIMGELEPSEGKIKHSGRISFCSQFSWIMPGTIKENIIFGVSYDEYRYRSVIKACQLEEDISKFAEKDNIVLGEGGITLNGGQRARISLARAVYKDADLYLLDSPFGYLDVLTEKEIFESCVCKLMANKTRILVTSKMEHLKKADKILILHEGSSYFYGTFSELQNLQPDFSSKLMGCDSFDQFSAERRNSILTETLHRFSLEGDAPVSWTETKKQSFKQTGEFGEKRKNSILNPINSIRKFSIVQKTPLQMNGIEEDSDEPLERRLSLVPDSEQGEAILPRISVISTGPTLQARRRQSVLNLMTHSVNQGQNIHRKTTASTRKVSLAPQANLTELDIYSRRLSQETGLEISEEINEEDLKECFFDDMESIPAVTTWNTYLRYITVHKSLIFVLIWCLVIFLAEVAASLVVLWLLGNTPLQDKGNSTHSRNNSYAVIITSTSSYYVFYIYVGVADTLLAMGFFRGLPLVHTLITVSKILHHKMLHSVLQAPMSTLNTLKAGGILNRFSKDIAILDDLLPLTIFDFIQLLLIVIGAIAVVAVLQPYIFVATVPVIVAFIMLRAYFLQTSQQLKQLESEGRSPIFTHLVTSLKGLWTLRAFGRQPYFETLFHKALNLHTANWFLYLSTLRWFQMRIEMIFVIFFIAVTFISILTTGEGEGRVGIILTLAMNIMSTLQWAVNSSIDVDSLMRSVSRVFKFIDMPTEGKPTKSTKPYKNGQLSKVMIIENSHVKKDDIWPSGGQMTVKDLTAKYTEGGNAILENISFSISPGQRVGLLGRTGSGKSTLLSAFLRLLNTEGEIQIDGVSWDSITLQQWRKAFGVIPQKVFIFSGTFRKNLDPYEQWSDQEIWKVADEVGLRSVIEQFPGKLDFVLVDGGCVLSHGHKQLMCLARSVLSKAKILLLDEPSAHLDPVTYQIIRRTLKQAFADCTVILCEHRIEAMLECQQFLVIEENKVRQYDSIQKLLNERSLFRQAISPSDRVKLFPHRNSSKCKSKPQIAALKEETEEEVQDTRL
The assay can be described thus: YFP-halide influx assay for the CFTR-S549N. More on the design: % Activation: concentration or dose not given beside the values. The text has this: (§1) The YFP halide influx assay measured the functionality of the cystic fibrosis Transmembrane Conductance regulator (CFTR) channels. The assay was used to evaluate the capacity of compounds to increase the channel opening of existing mutant CFTR channels in the membrane. It makes use of the observation that the yellow fluorescent protein (YFP) variant YFP H148Q, I152L, F47L has its fluorescence substantially quenched by halide ions like Cl^− and I^− (Galietta, L. J. V., Haggie, P. M., Verkman, A. S., 2001. Green fluorescent protein-based halide indicators with improved chloride and iodide affinities. FEBS Lett. 499, 220-224. doi:10.1016/S0014-5793(01)02561-3).
(§2) For this purpose, HEK293-cells were seeded in 96 well plates. During seeding, the cells were reverse-transfected with plasmid vectors that direct the expression of the CFTR G551D mutant and of the YFP reporter. Cells were incubated at 37° C., 5% CO2 for 24 hours so as to allow for sufficient expression of the CFTR protein.
(§3) The I^−-induced quenching of fluorescence was recorded immediately after injection of I^− for 7 seconds. The capacity of a compound to increase the channel opening was directly correlated with the decrease in fluorescence, and was expressed as (1−(fluorescence after 7 seconds (F)/fluorescence before injection (F0))) and an EC50 was derived from a (1−F/F0) vs compound concentration plot.
(§4) Similar YHA assays were developed for other channel gating defective or channel conductance defective CFTR mutants to determine effect of compound on channel activity. Examples of mutants are G178R, G1349D, S549N, R117H, R334W. This assay is also used for additional class I CFTR mutants, including G542X, W1282X; class II mutants including N1303K, and for class III mutants including S1251N; or wild-type CFTR.

Assay [5] addresses T4, CFTR-G178R (Homo sapiens, UniProt P13569, G178R).
T4 construct: expressed in transfected cells
The assay can be described thus: YFP-halide influx assay for the CFTR-G178R.
From the text: as §1, §2, §3, §4

The target of assay [6] is T5, CFTR-R117H (Homo sapiens, UniProt P13569, R117H).
T5 construct: expressed in transfected cells
T5 sequence (P13569 whole entry R117H): as the sequence (P13569 whole entry S549N) above, with R117H, N549S counted along it
The assay is described as follows: YFP-halide influx assay for the CFTR-R117H.
From the text: as §1, §2, §3, §4

Assay [7] addresses T6, CFTR-G1349D (Homo sapiens, UniProt P13569, G1349D).
T6 construct: expressed in transfected cells
The assay can be described thus: YFP-halide influx assay for the CFTR-G1349D.
From the text: as §1, §2, §3, §4

SMILES strings stand for the structures.

T6 sequence (P13569 whole entry G1349D): as the sequence (P13569 whole entry S549N) above, with N549S, G1349D counted along it
T4 sequence (P13569 whole entry G178R): as the sequence (P13569 whole entry S549N) above, with G178R, N549S counted along it
G551D CFTR, sequence (P13569 whole entry G551D): as the sequence (P13569 whole entry S549N) above, with N549S, G551D counted along it
T1 sequence (P13569 whole entry G551D): as the sequence (P13569 whole entry S549N) above, with N549S, G551D counted along it

With `Nc1cc(S(=O)(=O)c2ccc(OC(F)(F)F)cc2)cnc1C(=O)N[C@@H]1CCCC[C@H]1O` (racemic) [Compound 17, rac-3-amino-N-[(1R,2R)-2-hydroxycyclohexyl]-5-{[4-(trifluoromethoxy)phenyl]sulfonyl}pyridine-2-carboxamide], the “% Activation” value in assay [1] amounted to 82.7%; in assay [3], 113.0%. Further, the EC50 (as a rule, the midpoint of the concentration-response curve) was found to be 1.64 µM in assay [1], 1.13 µM in assay [2] and 0.0088 µM in assay [3].
With `CC(CO)CNC(=O)c1ncc(S(=O)(=O)c2ccc(OC(F)(F)F)cc2)cc1N` (centres unmarked) [Compound 24, 3-amino-N-(3-hydroxy-2-methylpropyl)-5-{[4-(trifluoromethoxy)phenyl]sulfonyl}pyridine-2-carboxamide], the “% Activation” value in assay [1] is given as 52.2%; in assay [3] it was 106.6%. The EC50 stood at 0.423 µM in assay [1], 2.83 µM in assay [2] and 0.0214 µM in assay [3].
Turning to `COCC(O)CNC(=O)c1ncc(S(=O)(=O)c2ccc(OC(F)(F)F)cc2)cc1N` (centres unmarked) [Compound 3, 3-amino-N-(2-hydroxy-3-methoxypropyl)-5-{[4-(trifluoromethoxy)phenyl]sulfonyl}pyridine-2-carboxamide], the “% Activation” value worked out at 73.9% in assay [1]; 91.8% in assay [4]; 98.2% in assay [5]; 109.7% in assay [3]; 102.0% in assay [6]; 83.2% in assay [7]. Moreover, the EC50 in assay [1] was determined as 1.98 µM; in assay [4], 0.839 µM; in assay [2], 1.98 µM; in assay [5] it was 0.392 µM; in assay [3] it was 0.0177 µM; in assay [6], 0.451 µM. This compound came in with a half-maximal effective concentration (EC50) in assay [7] of 0.291 µM.
As for `CC(C)(O)C1CN(C(=O)c2ncc(S(=O)(=O)c3ccc(C(F)(F)F)cc3)cc2N)C1` [Compound 165, (3-amino-5-{[4-(trifluoromethyl)phenyl]sulfonyl}pyridin-2-yl)[3-(2-hydroxypropan-2-yl)azetidin-1-yl]methanone], the “% Activation” value in assay [1] turned out to be 55.0%; in assay [3], 115.2%; in assay [6] it was 94.2%; in assay [7], 87.6%. Moreover, the EC50 in assay [1] stood at 0.287 µM; in assay [2] it was 0.116 µM; in assay [3] it was 0.0109 µM; in assay [6], 0.0928 µM; in assay [7] it was 0.214 µM.
On to `Nc1cc(S(=O)(=O)c2ccc(OC(F)(F)F)cc2)cnc1C(=O)NCC1(O)CC1` [Compound 15, 3-amino-N-[(1-hydroxycyclopropyl)methyl]-5-{[4-(trifluoromethoxy)phenyl]sulfonyl}pyridine-2-carboxamide], for which the entries for the “% Activation” value in assay [1] and in assay [3] were 69.3% and 109.0%, respectively. Further, the values for the EC50 in assay [1], in assay [2] and in assay [3] were 0.361 µM, 0.669 µM and 0.0026 µM, respectively.
With `Nc1cc(S(=O)(=O)c2ccc(OC(F)(F)F)cc2)cnc1C(=O)N[C@@H]1COC[C@H]1O` (racemic) [Compound 74, rac-3-amino-N-[(3R,4S)-4-hydroxytetrahydrofuran-3-yl]-5-{[4-(trifluoromethoxy)phenyl]sulfonyl}pyridine-2-carboxamide], the “% Activation” value in assay [1] was 65.0%; in assay [4], 91.4%; in assay [5], 84.3%; in assay [3] it was 110.0%; in assay [6] it was 100.0%; in assay [7], 86.8%. For the same compound, the EC50 in assay [1] is 0.839 µM; in assay [4], 0.567 µM; in assay [5] it was 0.348 µM; in assay [3], 0.0172 µM; in assay [6] it was 0.866 µM; in assay [7], 0.511 µM.
Take `COCC(O)CNC(=O)c1ncc(S(=O)(=O)c2ccccc2OC(F)(F)F)cc1N` (centres unmarked) [Compound 80, 3-amino-N-(2-hydroxy-3-methoxypropyl)-5-{[2-(trifluoromethoxy)phenyl]sulfonyl}pyridine-2-carboxamide]: the “% Activation” value in assay [1] was 95.1%; in assay [4], 108.5%; in assay [5], 95.08%; in assay [3], 102.0%; in assay [6], 111.5%; in assay [7] it was 98.43%. Moreover, the EC50 came out at 0.946 µM in assay [1]; 0.144 µM in assay [4]; 0.0811 µM in assay [5]; 0.0032 µM in assay [3]; 0.408 µM in assay [6]; 0.119 µM in assay [7].
In the case of `CC(C)(C)C(O)CNC(=O)c1ncc(S(=O)(=O)c2ccc(OC(F)(F)F)cc2)cc1N` (centres unmarked) [Compound 16, 3-amino-N-(2-hydroxy-3,3-dimethylbutyl)-5-{[4-(trifluoromethoxy)phenyl]sulfonyl}pyridine-2-carboxamide], the “% Activation” value in assay [1] was determined as 96.2%; in assay [4], 114.0%; in assay [5] it was 102.0%; in assay [3], 106.5%; in assay [6], 112.0%; in assay [7], 99.6%. In addition, the EC50 in assay [1] was 1.67 µM; in assay [4] it was over 3.33 µM; in assay [5], 1.01 µM; in assay [3], 0.0157 µM; in assay [6], 0.431 µM; in assay [7], 0.698 µM.
Consider `CC(C)(CO)CNC(=O)c1ncc(S(=O)(=O)c2ccc(OC(F)(F)F)cc2)cc1N` [Compound 18, 3-amino-N-(3-hydroxy-2,2-dimethylpropyl)-5-{[4-(trifluoromethoxy)phenyl]sulfonyl}pyridine-2-carboxamide], for which the “% Activation” value in assay [1] was found to be 79.2%; in assay [3] it was 109.1%. In addition, the 50% effective concentration (EC50) is over 3.33 µM in assay [1], 1.43 µM in assay [2] and 0.0431 µM in assay [3].
As for `C[C@@H](O)CNC(=O)c1ncc(S(=O)(=O)c2ccc(OC(F)(F)F)cc2)cc1N` [Compound 20, 3-amino-N-[(2R)-2-hydroxypropyl]-5-{[4-(trifluoromethoxy)phenyl]sulfonyl}pyridine-2-carboxamide], the “% Activation” value came out at 64.8% in assay [1] and 98.5% in assay [3]. Further, the EC50 in assay [1] was 0.893 µM; in assay [2], 3.7 µM; in assay [3], 0.0297 µM.
